According to patent US20230233569A1 (Revolution Medicines, Inc., priority 2020, published 2023):
“And” between values parts separate entries of the source, which are not always exact repeats. Equal values may be shown once. Read-outs that look alike come from different tables or passages of the source. Values belong to the molecule of their own block, whether it stands above or below them.

How the values were obtained:
KRAS G12C = KRAS G12C (Homo sapiens, UniProt P01116+P62937, G12C); test: Disruption of BRAF RBD interaction with Ras (FRET / MOA assay, with Cyclophilin A); format: biochemical
Source text: (§1) This protocol may also be executed substituting other Ras proteins or nucleotides.
(§2) The purpose of this biochemical assay was to measure the ability of test compounds to facilitate ternary complex formation between a nucleotide-loaded K-Ras isoform and Cyclophilin A; the resulting ternary complex disrupts binding to a BRAF^RBD construct, inhibiting K-Ras signaling through a RAF effector. Data is reported as IC50 values.
(§3) Compound was present in plate wells as a 10-point 3-fold dilution series starting at a final concentration of 30 μM. After incubation at 25° C. for 3 hours, a mixture of Anti-His Eu-W1024 and anti-GST allophycocyanin was then added to assay sample wells at final concentrations of 10 nM and 50 nM, respectively, and the reaction incubated for an additional 1.5 hours. […] Compounds that facilitate disruption of a K-Ras:RAF complex were identified as those eliciting a decrease in the TR-FRET ratio relative to DMSO control wells.
as §2, with “BRAF^RBDD” for “BRAF^RBD”

KRAS G12S = KRAS G12S (Homo sapiens, UniProt P01116+P62937, G12S); test: as above; format: biochemical; settings: read-out: KRAS G12S FRET data, IC50
Source text: as §1, §2, §3
as §2, with “BRAF^RBDD” for “BRAF^RBD”

KRAS G13D = KRAS G13D (Homo sapiens, UniProt P01116+P62937, G13D); test: as above; format: biochemical
Source text: as §1, §2, §3
as §2, with “BRAF^RBDD” for “BRAF^RBD”

KRAS WT = KRAS WT (Homo sapiens, UniProt P01116+P62937); test: as above; format: biochemical; settings: KRAS WT; read-out: KRAS WT FRET data IC50
Source text: as §1, §2, §3
as §2, with “BRAF^RBDD” for “BRAF^RBD”

NRAS G12C = NRAS G12C (Homo sapiens, UniProt P01111+P62937, G12C); test: as above; format: biochemical; settings: NRAS G12C; read-out: NRAS G12C FRET data IC50
Source text: as §1, §2, §3
as §2, with “BRAF^RBDD” for “BRAF^RBD”

KRAS G12D = KRAS G12D (Homo sapiens, UniProt P01116+P62937, G12D); test: as above; format: biochemical; settings: read-out: KRAS G12D FRET data, IC50
Source text: as §1, §2, §3
as §2, with “BRAF^RBDD” for “BRAF^RBD”

KRAS G12V = KRAS G12V (Homo sapiens, UniProt P01116+P62937, G12V); test: as above; format: biochemical; settings: KRAS G12V; read-out: KRAS G12V FRET data IC50
Source text: as §1, §2, §3
as §2, with “BRAF^RBDD” for “BRAF^RBD”

KRAS G13C = KRAS G13C (Homo sapiens, UniProt P01116+P62937, G13C); test: as above; format: biochemical
Source text: as §1, §2, §3
as §2, with “BRAF^RBDD” for “BRAF^RBD”

NCI-H358 (K-Ras G12C) = test: CellTiter-Glo cell viability assay, 5-day treatment; format: cell-based; settings: Homo sapiens, NCI-H358, H358, K-Ras G12C; read-out: Additional H358 Cell Viability assay data (K-Ras G12C, IC50)
Procedure: Protocol: CellTiter-Glo® Cell Viability Assay
Note—The following protocol describes a procedure for monitoring cell viability of K-Ras mutant cancer cell lines in response to a compound of the invention. Other RAS isoforms may be employed, though the number of cells to be seeded will vary based on cell line used.
(§4) Test compounds (132.5 nL) were directly dispensed into the assay plates containing cells. […] On day 5, assay plates and their contents were equilibrated to room temperature for approximately 30 minutes. […] Luminescence was measured using the PerkinElmer Enspire. Data were normalized by the following: (Sample signal/Avg. DMSO)*100. The data were fit using a four-parameter logistic fit.
as §4, with “nl)” for “nL)”

[1] = read-out: KRAS G12C FRET data, IC50
[2] = KRAS G13D, read-out: KRAS G13D FRET data IC50
[3] = read-out: KRAS G13C FRET data, IC50
[4] = KRAS G12C, read-out: KRAS G12C FRET data IC50
[5] = KRAS G13C, read-out: KRAS G13C FRET data IC50

Chain of NRAS G12C (P01111 whole entry G12C): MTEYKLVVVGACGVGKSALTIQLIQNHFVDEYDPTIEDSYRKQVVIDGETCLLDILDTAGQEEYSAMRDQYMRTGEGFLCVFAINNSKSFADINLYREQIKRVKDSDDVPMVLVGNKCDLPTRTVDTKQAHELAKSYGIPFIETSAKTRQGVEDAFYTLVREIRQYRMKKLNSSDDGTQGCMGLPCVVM
Chain of NRAS G12C (P62937 whole entry): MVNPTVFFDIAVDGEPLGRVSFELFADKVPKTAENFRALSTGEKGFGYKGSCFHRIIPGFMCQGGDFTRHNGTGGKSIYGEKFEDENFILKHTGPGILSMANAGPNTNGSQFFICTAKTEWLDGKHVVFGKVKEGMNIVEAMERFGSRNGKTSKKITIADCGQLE
Chain of KRAS G13C (P01116 1-169 isoform P01116-2 G13C): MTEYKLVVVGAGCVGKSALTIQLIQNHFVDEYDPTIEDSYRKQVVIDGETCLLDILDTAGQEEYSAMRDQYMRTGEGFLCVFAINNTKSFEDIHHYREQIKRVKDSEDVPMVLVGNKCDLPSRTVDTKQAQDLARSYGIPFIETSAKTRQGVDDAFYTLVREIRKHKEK
Chain of KRAS G13C (P62937 whole entry): as the sequence (P62937 whole entry) above
Chain of KRAS G13D (P01116 1-169 isoform P01116-2 G13D limits assumed): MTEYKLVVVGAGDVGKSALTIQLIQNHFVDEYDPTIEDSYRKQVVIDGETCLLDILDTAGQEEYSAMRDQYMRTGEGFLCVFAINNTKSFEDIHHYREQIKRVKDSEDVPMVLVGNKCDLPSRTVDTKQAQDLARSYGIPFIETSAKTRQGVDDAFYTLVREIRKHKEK
Chain of KRAS G13D (P62937 whole entry): as the sequence (P62937 whole entry) above
Chain of KRAS G12D (P01116 1-169 isoform P01116-2 G12D limits assumed): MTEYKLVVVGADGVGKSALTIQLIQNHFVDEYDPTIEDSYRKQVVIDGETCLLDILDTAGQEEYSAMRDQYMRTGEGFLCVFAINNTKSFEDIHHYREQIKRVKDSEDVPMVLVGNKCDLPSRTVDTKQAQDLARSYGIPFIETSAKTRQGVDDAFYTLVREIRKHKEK
Chain of KRAS G12D (P62937 whole entry): as the sequence (P62937 whole entry) above
Chain of KRAS G12V (P01116 1-169 isoform P01116-2 G12V limits assumed): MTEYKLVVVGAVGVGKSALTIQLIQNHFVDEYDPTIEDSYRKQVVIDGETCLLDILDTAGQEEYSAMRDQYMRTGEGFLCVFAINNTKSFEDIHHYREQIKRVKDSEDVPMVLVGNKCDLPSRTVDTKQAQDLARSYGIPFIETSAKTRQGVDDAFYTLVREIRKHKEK
Chain of KRAS G12V (P62937 whole entry): as the sequence (P62937 whole entry) above
Chain of KRAS G12C (P01116 1-169 isoform P01116-2 G12C): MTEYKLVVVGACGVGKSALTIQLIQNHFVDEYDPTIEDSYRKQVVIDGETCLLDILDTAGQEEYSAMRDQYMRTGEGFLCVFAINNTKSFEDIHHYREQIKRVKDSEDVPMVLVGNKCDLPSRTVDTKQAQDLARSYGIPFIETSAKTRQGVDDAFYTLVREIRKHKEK
Chain of KRAS G12C (P62937 whole entry): as the sequence (P62937 whole entry) above
Chain of KRAS G12S (P01116 1-169 isoform P01116-2 G12S limits assumed): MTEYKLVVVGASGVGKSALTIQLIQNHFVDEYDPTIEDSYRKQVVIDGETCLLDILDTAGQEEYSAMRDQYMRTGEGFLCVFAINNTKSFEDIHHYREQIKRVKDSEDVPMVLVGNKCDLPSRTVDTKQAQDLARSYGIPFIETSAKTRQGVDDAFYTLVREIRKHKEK
Chain of KRAS G12S (P62937 whole entry): as the sequence (P62937 whole entry) above
Chain of KRAS WT (P01116 1-169 isoform P01116-2 limits assumed): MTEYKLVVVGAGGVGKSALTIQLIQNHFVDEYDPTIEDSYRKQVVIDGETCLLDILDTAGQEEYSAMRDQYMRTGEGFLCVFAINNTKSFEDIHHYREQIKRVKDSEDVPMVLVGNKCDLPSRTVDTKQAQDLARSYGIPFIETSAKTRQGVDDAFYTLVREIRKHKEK
Chain of KRAS WT (P62937 whole entry): as the sequence (P62937 whole entry) above

SMILES: CCn1c(-c2cccnc2[C@H](C)OC)c2c3cc(ccc31)-c1cc(O)cc(c1)C[C@H](NS(=O)(=O)CC1CCC3(CNC3)C1)C(=O)N1CCC[C@H](N1)C(=O)OCC(C)(C)C2 (mixture of isomers) [Example A188]
- IC50 (KRAS G12C; [1]): > 10000 nM
- IC50 (KRAS G12S): > 10 µM
- IC50 (KRAS G13D; [2]): > 10 µM
- IC50 (KRAS WT): > 10 µM
- IC50 (NRAS G12C): > 10000 nM

SMILES: CO[C@@H](C)c1ncccc1-c1c2c3cc(ccc3n1C)-c1csc(n1)C[C@H](NC(=O)[C@H](C(C)C)N(C)C(C)=O)C(=O)N1CCC[C@H](N1)C(=O)OCC(C)(C)C2 (racemic) [Example A103]
- IC50 (KRAS G12C; [1]): > 10000 nM
- IC50 (KRAS G12D): > 10 µM
- IC50 (KRAS G12S): > 10 µM
- IC50 (KRAS G12V): > 10 µM
- IC50 (KRAS G13C; [3]): > 10000 nM
- IC50 (KRAS G13D; [2]): > 10 µM
- IC50 (KRAS WT): > 10 µM
- IC50 (NRAS G12C): > 10000 nM

SMILES: CCn1c(-c2cccnc2[C@H](C)OC)c2c3cc(ccc31)-c1cc(O)cc(c1)C[C@H](NS(=O)(=O)N1CCN(C)CC1)C(=O)N1CCC[C@H](N1)C(=O)OCC(C)(C)C2 (racemic) [Example A193]
- IC50 (KRAS G12C; [1]): > 10000 nM
- IC50 (KRAS G12D): > 10 µM
- IC50 (KRAS G12S): > 10 µM
- IC50 (KRAS G12V): > 10 µM
- IC50 (KRAS G13C; [3]): > 10000 nM
- IC50 (KRAS G13D; [2]): > 10 µM
- IC50 (KRAS WT): > 10 µM
- IC50 (NRAS G12C): > 10000 nM

SMILES: CCn1c(-c2cnccc2COC)c2c3cc(ccc31)-c1cc(O)cc(c1)C[C@H](NC(=O)[C@H](C(C)C)N(C)CC(F)(F)F)C(=O)N1CCC[C@H](N1)C(=O)OCC(C)(C)C2 [Example A77]
- IC50 (KRAS G12C; [1]): 1000 to 10000 nM
- IC50 (KRAS G12D): > 10 µM
- IC50 (KRAS G12S): > 10 µM
- IC50 (KRAS G12V): > 10 µM
- IC50 (KRAS G13C; [3]): 1000 to 10000 nM
- IC50 (KRAS G13D; [2]): 1 to 10 µM
- IC50 (KRAS WT): > 10 µM
- IC50 (NRAS G12C): > 10000 nM

The next lines start with the values.

- IC50 (KRAS G12C; [1]): 100 to 1000 nM
- IC50 (KRAS G12D): 0.1 to 1 µM
- IC50 (KRAS G12S): 0.1 to 1 µM
- IC50 (KRAS G12V): 1 to 10 µM
- IC50 (KRAS G13C; [3]): 100 to 1000 nM
- IC50 (KRAS G13D; [2]): 0.1 to 1 µM
- IC50 (KRAS WT): 0.1 to 1 µM
- IC50 (NRAS G12C): 100 to 1000 nM
SMILES: CCn1c(-c2cnccc2COC)c2c3cc(ccc31)-c1cc(O)cc(c1)C[C@H](NC(=O)[C@H](C(C)C)N(C)C(=O)OC1CNC1)C(=O)N1CCC[C@H](N1)C(=O)OCC(C)(C)C2 [Example A81]

- IC50 (KRAS G12C; [4]): 1000 to 10000 nM
- IC50 (KRAS G12S): > 10 µM
- IC50 (KRAS G12V): > 10 µM
- IC50 (KRAS G13C; [5]): > 10000 nM
- IC50 (KRAS G13D; [2]): > 10 µM
- IC50 (KRAS WT): > 10 µM
- IC50 (NRAS G12C): 1000 to 10000 nM
SMILES: C=CC(=O)N1CC[C@H](C(=O)N(C)[C@H](C(=O)N[C@H]2Cc3cccc(c3)-c3ccc4c(c3)c(c(-c3cc(CN(C)C)cnc3[C@H](C)OC)n4CC)CC(C)(C)COC(=O)[C@@H]3CCCN(N3)C2=O)C(C)C)C1 [Example A523]

- IC50 (NCI-H358 (K-Ras G12C)): < 10 nM
SMILES: C=CC(=O)Nc1cnc(C(=O)N(C)[C@H](C(=O)N[C@H]2Cc3cccc(c3)-c3ccc4c(c3)c(c(-c3cccnc3[C@H](C)OC)n4CC)CC(C)(C)COC(=O)[C@@H]3CCCN(N3)C2=O)C(C)C)n1C [Example A525]

- IC50 (KRAS G12C; [1]): 1000 to 10000 nM and 10 to 100 nM
- IC50 (KRAS G12D): 1 to 10 µM and > 10 µM
- IC50 (KRAS G12S): 0.1 to 1 µM and > 10 µM
- IC50 (KRAS G12V): 1 to 10 µM and 0.01 to 0.1 µM
- IC50 (KRAS G13C; [3]): 100 to 1000 nM and > 10000 nM
- IC50 (KRAS G13D; [2]): 0.1 to 1 µM and > 10 µM
- IC50 (KRAS WT): 0.1 to 1 µM and > 10 µM
- IC50 (NRAS G12C): 100 to 1000 nM and 1000 to 10000 nM
SMILES: CCn1c(-c2cccnc2[C@H](C)OC)c2c3cc(ccc31)-c1cc(O)cc(c1)C[C@H](NC(=O)[C@H](C(C)C)N(C)C(=O)[C@H]1CCN(C(=O)OC(C)C)C1)C(=O)N1CCC[C@H](N1)C(=O)OCC(C)(C)C2 [Example A117]

- IC50 (KRAS G12C; [4]): 10 to 100 nM and < 10 nM
- IC50 (KRAS G12D): 1 to 10 µM
- IC50 (KRAS G12S): 1 to 10 µM and > 10 µM
- IC50 (KRAS G12V): 1 to 10 µM and > 10 µM
- IC50 (KRAS G13C; [5]): 100 to 1000 nM and 10 to 100 nM
- IC50 (KRAS G13D; [2]): 1 to 10 µM
- IC50 (KRAS WT): 1 to 10 µM and > 10 µM
- IC50 (NRAS G12C): < 10 nM
SMILES: CCn1c(-c2ccccc2CCOC)c2c3cc(ccc31)-c1cc(O)cc(c1)C[C@H](NC(=O)[C@H](C(C)C)N(C)C(=O)[C@H]1CCN(C(=O)C#CCN(C)C)C1)C(=O)N1CCC[C@H](N1)C(=O)OCC(C)(C)C2 [Example A038]

- IC50 (KRAS G13D; KRAS G13D FRET data IC50, KRAS G13D): > 10 µM
SMILES: CCn1c(-c2cccnc2[C@H](C)OC)c2c3cc(ccc31)-c1csc(n1)C[C@H](NC(=O)[C@H](C(C)C)N(C)C(=O)C1COC1)C(=O)N1CCC[C@H](N1)C(=O)OCC(C)(C)C2 [Example A245]
